Drawing on patent US8058292B2, “Therapeutic agents useful for treating pain” (Purdue Pharma L.P., priority 2003, dated 2011), this text covers IC50 for one compound.

The target in this assay is T1, rat mGluR5 (Rattus norvegicus, UniProt P31424).
T1 construct: expressed in transfected cells; host or cells: CHO cells (CHO-rat mGluR5 line, kept under Geneticin selection)
The experiment in a line: Calcium mobilization flux (FLIPR) in CHO-rat mGluR5 cells in the presence of glutamate. Type of assay: cell-based. The note with it: 10 uM glutamate, Fluo 4 calcium flux, mean of 4 experiments. The protocol:
40,000 CHO-rat mGluR5 cells/well were plated into 96 well plate (Costar 3409, Black, clear bottom, 96 well, tissue culture treated) for an overnight incubation in Dulbecco's Modified Eagle's Medium (DMEM, pH 7.4) and supplemented with glutamine, 10% FBS, 1% Pen/Strep, and 500 ug/mL Geneticin. CHO-rat mGluR5 cells were washed and treated with Optimem medium and were incubated for 1-4 hours prior to loading cells. […]
The plates containing the CHO-rat mGluR5 cells were transferred to a FLIPR for the assessment of calcium mobilization flux in the presence of glutamate and in the presence or absence of test compounds. After monitoring fluorescence for 15 seconds to establish a baseline, DMSO solutions containing various concentrations of the test compound diluted in loading buffer (0.05 mL of 4× dilutions for the competition curves) were added to the cell plate and fluorescence was monitored for 2 minutes. […] Plate fluorescence was then monitored for an additional 60 seconds after agonist addition. […] In each experiment, fluorescence was monitored as a function of time and the data analyzed using Microsoft Excel and GraphPad Prism. […] In each experiment, each data point was determined at least two times.

T1 sequence (P31424 21-1203): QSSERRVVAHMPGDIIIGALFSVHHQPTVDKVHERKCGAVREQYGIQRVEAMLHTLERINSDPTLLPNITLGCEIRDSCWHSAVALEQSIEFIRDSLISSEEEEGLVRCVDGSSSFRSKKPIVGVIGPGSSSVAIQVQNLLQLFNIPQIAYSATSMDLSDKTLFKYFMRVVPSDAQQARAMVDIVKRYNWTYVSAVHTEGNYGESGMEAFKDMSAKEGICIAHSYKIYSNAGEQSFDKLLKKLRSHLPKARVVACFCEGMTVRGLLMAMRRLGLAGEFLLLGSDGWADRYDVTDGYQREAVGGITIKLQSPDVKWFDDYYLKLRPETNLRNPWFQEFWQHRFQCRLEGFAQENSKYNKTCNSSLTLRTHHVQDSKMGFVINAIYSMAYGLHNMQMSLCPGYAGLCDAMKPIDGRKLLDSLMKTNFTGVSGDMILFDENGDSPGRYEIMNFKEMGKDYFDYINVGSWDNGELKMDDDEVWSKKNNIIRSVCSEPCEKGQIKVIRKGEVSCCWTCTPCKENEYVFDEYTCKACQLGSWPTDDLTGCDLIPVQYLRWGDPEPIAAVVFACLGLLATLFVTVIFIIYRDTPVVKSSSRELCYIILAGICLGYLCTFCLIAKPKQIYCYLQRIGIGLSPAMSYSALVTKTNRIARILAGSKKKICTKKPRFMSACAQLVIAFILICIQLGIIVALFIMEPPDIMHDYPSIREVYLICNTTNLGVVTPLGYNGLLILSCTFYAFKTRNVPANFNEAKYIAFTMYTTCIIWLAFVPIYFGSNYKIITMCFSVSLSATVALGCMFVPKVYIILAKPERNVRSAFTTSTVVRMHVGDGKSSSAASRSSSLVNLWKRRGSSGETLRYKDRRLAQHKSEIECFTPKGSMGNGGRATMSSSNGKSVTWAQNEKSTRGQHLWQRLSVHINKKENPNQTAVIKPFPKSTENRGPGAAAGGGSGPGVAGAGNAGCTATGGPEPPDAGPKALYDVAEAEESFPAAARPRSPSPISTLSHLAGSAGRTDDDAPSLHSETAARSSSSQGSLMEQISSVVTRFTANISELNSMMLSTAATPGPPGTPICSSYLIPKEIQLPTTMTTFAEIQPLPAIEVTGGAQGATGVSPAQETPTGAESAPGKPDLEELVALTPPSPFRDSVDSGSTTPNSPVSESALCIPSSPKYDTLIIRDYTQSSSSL

Regarding `O=C(C#Cc1ccccc1)N1CC(Nc2ncccc2[N+](=O)[O-])C1` [AAB(Ib)], the IC50 amounted to 110 ± 17.9 nM.

As a reminder, the IC50 is the concentration needed to halve the response being measured.
